{
  "source": "patent US6656734B1",
  "about": "“Compositions for the delivery of polynucleotides to cells” (Transgene S.A., priority 1997, dated 2003)",
  "key": {"plasmid DNA (pTG11033)": {"tested_on": "plasmid DNA (pTG11033)", "assay": "Plasmid DNA melting curves", "assay_type": "physicochemical", "details": "50 μg/ml pTG11033 in 20 mM HEPES pH 7.5, 0-20% DPSO, 35-100° C., 260 nm; versus DNA alone", "procedure": "Plasmid DNA melting curves were recorded on a thermostated UV/Visible CARY/VARIAN spectrophotometer (sofware version: 3.04) using 2 quartz cuvettes (L=1cm) with Teflon stopper."}, "pulmonary cells": {"tested_on": "pulmonary cells", "assay": "Luciferase activity in lungs of mice after intratracheal injection of plasmid/polar compound compositions", "assay_type": "in vivo", "details": "B6/SJLF1 mice", "procedure": "The chosen polynucleotide, i.e. the plasmid pTG11033 (FIG. 1), encompasses the gene encoding luciferase placed under the control of the CMV promoter, intron 1 of the HMG gene and the SV40 polyA termination signal. The plasmid DNA contained in 250 μl of a 1 mg/ml solution of purified plasmid (purified by centrifugation in a cesium chloride gradient) is precipitated with ethanol. After having been centrifuged, washed with 70% ethanol and dried, the nucleic acid pellet is taken up in a given volume of DESO or DPSO and of 20 mM Hepes buffer, pH 7.5, in order to give the following compositions as shown in Table I below: The 8-week-old female mice (B6/SJLF1, Iffa Credo) were anaesthetized by means of intraperitoneal injection (physiological saline, […] 1000, xylazine/ROMPUN). […] Each composition is injected into at least three different mice. The expression levels are compared with those obtained after injecting 50 μg of DNA in 50 μl of 20 mM Hepes, pH 7.5, without any addition of polar compound. A control in which the mice are not injected is also included in the protocol. The mice are sacrificed two days after the injections. The lungs and the trachea are treated independently. The tissues are frozen in liquid nitrogen and stored at -80° C. In order to measure the luciferase activity, the tissues are ground up mechanically using a pestle in a mortar which is placed on dry ice. 500 μl or 200 μl of a lysis buffer (Promega) are added to the tissue fragments obtained from the lungs or the trachea, respectively, and the solution is subjected to three steps of freezing/thawing. The cell debris is removed by centrifugation and the luciferase activity (in RLU/min, relative light unit per minute) is measured on 20 μl of supernatant, in accordance with the supplier's (Promega) instructions, by adding 100 μl of reagent and measuring the activity by means of luminescence. The luciferase activity which is measured is standardized in relation to the quantity of protein with the aid of a standard scale which is generated using commercially available luciferase (Promega). […]"}, "airways cell": {"tested_on": "airways cell", "assay": "Theophylline pretreatment before airway delivery of a composition comprising DPSO", "assay_type": "in vivo", "details": "oral 0.3 mg theophylline to mice about 30 min before composition comprising DPSO", "from_the_text": "Finally, the invention relates to a cell which is transfected with a composition as previously defined, in particular a prokaryotic cell, or a yeast or eukaryotic cell, in particular an animal cell, in particular a mammalian cell, more especially a cancerous cell. According to a preferred embodiment of the invention, the said cell is an airways cell, more especially a tracheal or pulmonary cell, advantageously a cell of the respiratory epithelium. In the case of airway delivery, prior administration of bronchodilator compounds (for example, theophylline) could be advantageous."}},
  "note": "Entries after “also recorded” stand apart in the source; their conditions may differ.",
  "data": [
    {"compound": "CCC[S+]([O-])CCC", "note": "[DPSO, di-n-propyl sulphoxide]", "values": [
      {"measurement": "Absorbance change upon DNA melting", "setting": "plasmid DNA (pTG11033)", "value": "lowered"},
      {"measurement": "temperature at which absorbance change (DNA melting) occurs", "setting": "plasmid DNA (pTG11033)", "value": "higher temperature"},
      {"measurement": "measured level of expression of the luciferase-encoding gene on increasing the percentage of the compound", "setting": "pulmonary cells; 50 μg DNA, FIG. 4", "value": "improve the measured level of expression"},
      {"measurement": "expression of the luciferase gene in the pulmonary tissues", "setting": "pulmonary cells; 50 μg DNA/50 μl, 15% (v/v) polar compound, sacrificed two days after injection, compared with polynucleotide alone", "value": "increases expression; also recorded: markedly improved"},
      {"measurement": "transfection of the pulmonary cells (luciferase expression)", "setting": "pulmonary cells; 50 μg pTG11033/50 μl, 10 or 15% polar compound, compared with polynucleotide on its own", "value": "best results"}
    ]},
    {"compound": "Cn1c(=O)c2[nH]cnc2n(C)c1=O", "note": "[theophylline]", "values": [
      {"measurement": "expression level compared with administration without pretreatment", "setting": "airways cell", "value": "slightly increase of the expression level"}
    ]}
  ]
}
